PMC5764437, “Discovery of novel, orally bioavailable, antileishmanial compounds using phenotypic screening” (PLoS Neglected Tropical Diseases, 2017)
In brackets after ≈: the same amount, converted by molar mass. Entries after “also recorded” stand apart in the source; their conditions may differ.

Legend:
[1] = test system: L. mexicana intracellular amastigotes; assay: Growth inhibition of intracellular amastigotes in J774A.1 macrophages (Renilla luciferase luminescence); type: cell-based; conditions: Leishmania mexicana, J774.A1; intracellular amastigotes in J774A.1 macrophages; mean ± standard deviation, n = 2; read-out: L. mexicana EC50
Protocol: (§1) L. mexicana (MNYZ/BZ/62/M379) or L. donovani (LdBob strain) parasites expressing the Renilla luciferase gene from a rRNA gene locus were used to infect J774A.1 macrophages. Growth of intracellular amastigotes was measured using a luminescence assay, as detailed previously. The growth inhibitor activities of compounds were tested against bloodstream form Lister 427 T. brucei in 96-well plates containing 1 X 10^5 parasites per well in 0.2 ml HMI-11 medium (Gibco/Thermo Fisher). Compounds (2 μl volumes in DMSO) were added to the parasites using serial 3-fold dilutions to cover a range of concentrations from about 10 μM to 1 nM. After 48 h incubation at 37°C under a humidified 5% CO2 atmosphere, 10 μl of 10% Triton X-100 and 100 X stock SYBR Green I (Sigma-Aldrich) in PBS was added and florescence measured (excitation 497 nm; emission 520 nm) after 1 h incubation in the dark using a Spectra Max Gemini XPS fluorimeter (Molecular Devices). Data were log transformed and EC50 values were determined using GraphPad Prism 6 (GraphPad Software). In the absence of growth inhibiting compounds, the parasites grew from an initial density of 5 X 10^5 cells/mL to ~3 X 10^6 cells/mL.
[…]. These were chosen as candidates for further study. From these 230 compounds, we were able to repurchase 113 from commercial vendors. These compounds were characterized for purity by ultra-performance liquid chromatography using ultraviolet spectroscopy and evaporative light scattering detection and identity by mass spectrometry. All validated compounds were profiled for activity against intracellular amastigotes, the disease-causing stage of the life cycle. Intracellular amastigote activity was determined using a strain of L. mexicana in which the Renilla luciferase gene was integrated into the rRNA locus, allowing robust expression for measuring amastigote growth within cultured macrophages. All 113 compounds were applied at 1 μM concentration for 96 h to J774A.1 macrophages infected with L. mexicana luciferase-expressing parasites. […].
Next, we generated dose-response curves for these 55 compounds against intracellular amastigotes and independently against J774A.1 macrophages to establish the relative potency of each compound against the pathogen and its host cell. […]. The nine remaining compounds, each representing a unique chemical scaffold (compounds 1–9, Fig 3), were designated top hits (Fig 1).

[2] = test system: bloodstream form Lister 427 T. brucei; assay: Growth inhibition of T. brucei bloodstream forms (SYBR Green I); type: cell-based; conditions: Trypanosoma brucei, bloodstream form; mean ± standard deviation, n = 2; read-out: T. brucei EC50
Protocol: as §1

[3] = test system: Trypanosoma cruzi CL Brener epimastigotes; assay: Growth inhibition of Trypanosoma cruzi epimastigotes (SYBR Green); type: cell-based; conditions: 72 h, 10 μM to 1 nM
Protocol: Trypanosoma cruzi CL Brener epimastigotes were obtained from Dr. Fred Buckner of the Department of Medicine at the University of Washington. T. cruzi epimastigotes were grown in liver infusion tryptose medium and seeded in a 96-well plate at 10^5 epimastigotes per well in 100 μl medium. For each well, 1 μl of compound in DMSO at 100X the desired final concentration was added. Epimastigotes were exposed to a range of compound concentrations from 10 μM to 1 nM to determine EC50. Plates were incubated at 26°C for 72 h, then 10 μl 50X SYBR Green in 1% Triton X-100 was added to each well followed by incubation with shaking at room temperature for 30 minutes. Fluorescence was read (excitation 485nm, emission 535nm) with the Victor^2 multiplate reader (PerkinElmer). All data processing and visualization were performed using GraphPad Prism 6 software.

[4] = Solubility in aqueous buffer; type: physicochemical; conditions: citrate phosphate buffered saline, pH 7.4, aqueous buffer, kinetic from dmso stock
Protocol: Solubility assays were carried out on a Biomek FX lab automation workstation (Beckman Coulter, Inc., Fullerton, CA) using μSOL Evolution software (pION Inc.). Compound stock (10 mM in DMSO, 10 μL) was added to 1-propanol (190 μL) to make a reference stock plate. Reference stock solution (5 μL) was mixed with 1-propanol (70 μL) and citrate phosphate buffered saline (pH 7, 75 μL) to make the reference plate which was then measured with UV detection. Test compound stock (10 mM, 6 μL) was added to citrate phosphate buffered saline (594 μL) in a 96-well storage plate and mixed. […] The suspension was then filtered through a 96-well filter plate (pION Inc.). Filtrate (75 μL) was mixed with 1-propanol (75 μL) to make the sample plate, and the UV spectrum (250 nm −500 nm) of the sample plate was recorded. Calculation of solubility was carried out using μSOL Evolution software based on the AUC of the UV spectrum of the sample plate and the reference plate. All compounds were tested in triplicate.

[5] = test system: Caco-2 cells; assay: Caco-2 permeability assay; type: in vitro ADME; conditions: predicted from solubility and membrane permeability
[6] = Stability in simulated gastric fluid; conditions: simulated gastric fluid with pepsin, pH 1
Protocol: Compound stocks were 10 mM in DMSO. The internal standard was 5 µM warfarin in methanol. […] 1 ml SGF was added to a 1.1 ml 96-well storage plate and mixed well with 10 µl compound stock. The plate was then incubated at 37 °C and shaken at 60 rpm. […] At each time point, 100 µl was removed to a 1 ml storage plate and 300 µl internal standard was added to quench the reaction. […] The compound was detected by SIR and quantification was based on peak area of test compound and the internal standard.

[7] = Liver microsomal stability, mouse; conditions: female, liver microsomes, pH 7.4
Protocol: One part of 10 mM DMSO compound stock was mixed with 4 parts of acetonitrile to make 2 mM diluted compound stock in DMSO and acetonitrile. 29.1 µL diluted compound stock was added to 2.3 mL liver microsomal solution and vortexed to make microsomal solution with compound. […] For the 0 h time point, 450 µL pre-cooled (4 °C) internal standard (10 µM warfarin in methanol) was added to the first three columns before the reaction was initiated. 1.25 ml of microsome assay solution A (Fisher Scientific, #NC9255727) was combined with 0.25 ml of solution B (Fisher Scientific, #NC9016235) in 3.5 ml of potassium phosphate buffer (0.1 M, pH 7.4). 45 µL of this A+B solution was added to each well of the 96-well storage plate (reaction plate). Liquid in the first 3 columns was moved to another storage plate (quenched plate). The reaction plate was then sealed, incubated at 37 °C, and shaken at a speed of 60 rpm. Time points (0.5 h, 1 h, 2 h) were taken. At each time point, 450 µL pre-cooled internal standard was added to 3 rows in the reaction plate, and the liquid was then transferred to the quenched plate. […] 200 µL supernatant was transferred to a 96-well plate and analyzed by ultra-performance liquid chromatography-mass spectrometry (UPLC-MS) (Waters Inc.). The compounds and internal standard were detected by selected ion recording (SIR).

[8] = Dose-ranging tolerability / 10-day toxicity study in mice; type: in vivo, mouse; conditions: oral, 30 mg/kg

| SMILES | EC50 [1] [nM] | EC50 [2] [µM] | T. cruzi epimastigotes EC50 [3] | solubility at 18 h [4] [µM] | Predicted absorption across the intestinal epithelium [5] | half-life at 99 µM [6] [min] | half-life at 20 μM [7] [min] | EC50 ([3]; Trypanosoma cruzi, read-out: T. cruzi epimastigotes EC50) [nM] | Tolerability (weight loss, appetite, other toxicity) [8] |
| --- | --- | --- | --- | --- | --- | --- | --- | --- | --- |
| COc1ccc(-c2c(C(F)(F)F)oc3c(CN4CCN(C)CC4)c(O)ccc3c2=O)cc1OC [Compound 4] | 80 | 11 ± 1 | no inhibition | 67 (≈ 32.1 µg/mL) | ~ 85% | > 2880 | > 240 |  |  |
| Cc1ccc(-c2nc3ccccc3s2)cc1NC(=O)c1cc([N+](=O)[O-])c(N2CCN(C)CC2)cc1Cl [Compound 5] | 22 |  |  | 0.3 (≈ 0.157 µg/mL) |  | > 1440 | > 240 | 86 ± 30 | suppressed appetite was resolved by dose reduction to 30 mg/kg; also recorded: No weight loss or other toxicity was observed |
